In patent US6825181B1, “Aminoisoquinoline derivatives” (Ajinomoto Co., Inc., priority 1998, dated 2004):

How the values were obtained:
Assay type in all cases: biochemical
[1] = target: T1, activated human blood coagulation factor X (Homo sapiens, UniProt P00742); experiment: Determination of activity of inhibiting the activated blood-coagulation factor X; conditions: negative logarithm of concentration inhibiting 50% of initial rate; pH 8.4, room temperature; read-out: Activity of inhibiting activated blood coagulation factor X (pIC50) (converted)
T1 construct: purchased Enzyme Research Co
T1 sequence (P00742 235-488 limits assumed): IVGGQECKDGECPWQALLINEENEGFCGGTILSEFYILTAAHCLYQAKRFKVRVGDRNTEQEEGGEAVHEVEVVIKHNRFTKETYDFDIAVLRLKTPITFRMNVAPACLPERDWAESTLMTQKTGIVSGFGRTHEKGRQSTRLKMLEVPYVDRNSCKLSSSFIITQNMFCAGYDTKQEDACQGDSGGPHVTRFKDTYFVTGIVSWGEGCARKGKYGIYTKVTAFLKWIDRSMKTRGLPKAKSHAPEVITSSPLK
T1 sequence (P00742 41-179 partner limits assumed): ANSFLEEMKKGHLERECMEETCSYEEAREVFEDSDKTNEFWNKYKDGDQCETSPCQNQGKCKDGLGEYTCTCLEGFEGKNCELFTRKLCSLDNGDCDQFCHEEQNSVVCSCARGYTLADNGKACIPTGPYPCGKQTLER
Procedure: Determination of Activity of Inhibiting the Activated Blood-Coagulation Factor X
130 μl of 100 mM tris hydrochloride buffer adjusted to pH 8.4 was added to 10 μl of an aqueous solution of a compound to be tested. Then 10 μl of a 0.5 unit/ml solution of activated human blood coagulation factor X (a product of Enzyme Research Co.) in tris hydrochloride of pH 8.4 was added to the resultant mixture. After the incubation at room temperature for 10 minutes, 50 μl of a solution of N-benzoyl-L-isoleucyl-L-glutamyl-glycyl-L-arginyl-P-nitroanilide hydrochloride (a product of Peptide Institute, Inc.) adjusted to 0.8 mM with tris hydrochloride (pH 8.4) was added thereto. The absorbance was determined and then the initial reaction rate was determined. A control was prepared in the same manner as that described above except that the solution of the compound to be tested was replaced with 10 μl of tris hydrochloride buffer adjusted to pH 8.4. The absorbance was determined with MICROPLATE READER Model 3550-UV (a product of BIO RAD) at a wave length of 405 nm at intervals of 15 seconds for 16 minutes.

human thrombin = target: T2, human thrombin (Homo sapiens, UniProt P00734); experiment: Determination of thrombin-inhibiting activity; conditions: negative logarithm of concentration inhibiting 50% of initial rate; substrate S-2238, pH 8.4; read-out: Thrombin-inhibiting activity (pIC50) (converted)
T2 construct: solution of human thrombin (a product of SIGMA Co.); purchased SIGMA Co
Procedure: Determination of Thrombin-Inhibiting Activity:
130 μl of 100 mM tris hydrochloride buffer adjusted to pH 8.4 was added to 10 μl of an aqueous solution of a test compound. Then 10 μl of a solution of human thrombin (a product of SIGMA Co.) adjusted to 2 units/ml with tris hydrochloride buffer of pH 8.4 was added to the resultant mixture. After the incubation at room temperature for 10 minutes, 50 μl of a solution of D-phenylalanyl-L-pipecolyl-L-arginyl-P-nitroanilide dihydrochloride (S-2238; a product of Daiichi Kagaku Yakuhin Co.) adjusted to 0.4 mM with tris hydrochloride buffer of pH 8.4 was added thereto. The absorbance was determined and then the initial reaction rate was determined. A control was prepared in the same manner as that described above except that the solution of the compound to be tested was replaced with 10 μl of tris hydrochloride buffer adjusted to pH 8.4. The absorbance was determined with MICROPLATE READER Model 3550-UV (a product of […]) at a wave length of 405 nm at intervals of 15 seconds for 16 minutes. The negative logarithm (pIC50) of a concentration of the test compound which inhibits 50% of the activity (initial rate) of the thrombin in the absence of the test compound was determined, and employed as the index of the activity of inhibiting thrombin.

[2] = tested on: blood plasma from healthy people (prothrombin time); experiment: Determination of blood anticoagulating activity by prothrombin time (PT) determination method; conditions: negative logarithm of concentration which elongated PT of the control to twice as long; human blood plasma
Procedure: Determination of Blood Anticoagulating Activity:
The blood anticoagulating activity was determined by a prothrombin time (PT) determination method. The PT was determined as follows: The blood was taken from healthy people. 3.8% aqueous trisodium citrate solution was added to the blood in a volume ratio of 1:10. The blood plasma was separated by the centrifugation. 5 μl of DMSO solution containing a test compound was added to 45 μl of the blood plasma. After the incubation at room temperature for 2 minutes, a test tube containing the blood plasma solution was placed in Sysmex CA-3000 fully automatic blood coagulation determination device (a product of To a Medical Electronics Co., Ltd.), and incubated at 37° C. for 3 minutes. 100 μl of Sysmex PT II (rabbit brain tissue thromboplastin, 13.2 mM calcium chloride; a product of To a Medical Electronics Co., Ltd.) was fed into the test tube. PT was automatically determined with the device. A sample containing […] of DMSO in place of the solution of the test compound was used as the control. The negative logarithm (PT2) of the concentration of the test compound which elongated PT of the control to the twice as long was determined, and employed as the index of the blood anticoagulating activity.

| SMILES | IC50 [1] [µM] | IC50 (human thrombin) [µM] | Blood anticoagulating activity (PT2) [2] |
| --- | --- | --- | --- |
| Nc1nccc2cc(CC(=O)C(=O)O)c(OCCNC(=O)C3CCN(c4ccncc4)CC3)cc12 [Compound of Ex. 27, 3-[1-amino-7-(2-(4-(1-(4-pyridyl)-4-piperidine)carbonylamino)ethoxy)isoquinoline-6-yl]-2-oxopropionic acid bistrifluoroacetate] | 0.251 | > 501 | 6.2 |
| N=C(N)Nc1ccc(C(=O)N[C@H](CCC(=O)O)COc2ccc3ccnc(N)c3c2)cc1 [Compound of Ex. 25, (4R)-5-(1-aminoisoquinoline-7-yloxy)-4-[4-(guanidino)benzoylamino]pentanoic acid mono-trifluoroacetate] | 0.398 | 794 |  |
| CC(=N)N1CCC(Oc2ccc(C(=O)NCCOc3cc4c(N)nccc4cc3CC(=O)C(=O)O)cc2)CC1 [Compound of Ex. 26, 3-[1-amino-7-(2-(4-(1-acetimidoyl-4-piperidyloxy)benzoylamino)ethoxy)isoquinoline-6-yl]-2-oxopropionic acid bistrifluoroacetate] | 0.2 | > 501 | 6.2 |
| Nc1nccc2ccc(OC[C@@H](CCC(=O)O)NC(=O)c3ccc(C(=O)N4CCCC4)cc3)cc12 [Compound of Ex. 16, (4R)-5-(1-aminoisoquinoline-7-yloxy)-4-[4-(1-pyrrolidinecarbonyl)benzoylamino]pentanoic acid mono-trifluoroacetate] | 0.0794 | > 1000 | 5.6 |
| Nc1nccc2ccc(OC[C@@H](CCC(=O)O)NC(=O)C3CCN(c4ccncc4)CC3)cc12 [Compound of Ex. 21, (4R)-5-(1-aminoisoquinoline-7-yloxy)-4-[(1-(4-pyridyl)-4-piperidine)carbamido]pentanoic acid bistrifluoroacetate] | 0.158 | 316 |  |
| Nc1nccc2cc(CC(=O)C(=O)O)c(OCCNC(=O)c3ccc(C(=O)N4CCCC4)cc3)cc12 [Compound of Ex. 23, 3-[1-amino-(2-(4-(1-pyrrolidinecarbonyl)benzoylamino)ethoxy)isoquinoline-6-yl]-2-oxopropionic acid mono-trifluoroacetate] | 0.0251 | 15.8 |  |
| CCOC(=O)CC[C@H](COc1ccc2ccnc(N)c2c1)NC(=O)c1ccc(C(=O)N2CCCC2)cc1 [Compound of Ex. 17, ethyl (4R)-5-(1-aminoisoquinoline-7-yloxy)-4-[4-(1-pyrrolidinecarbonyl)benzoylamino]pentanoate mono-trifluoroacetate] | 0.251 | 316 |  |
| Nc1nccc2ccc(OCCNC(=O)c3ccc(C(=O)N4CCCC4)cc3)cc12 [Compound of Ex. 2, N-[2-(1-aminoisoquinoline-7-yloxy)ethyl]-4-(1-pyrrolidinecarbonyl)benzamide mono-trifluoroacetate] | 0.251 | 251 | 5.5 |
